{"source": "patent EP0815110B1", "type_in_all_cases": "biochemical, Ratte", "key": {"[1]": {"biological_target": "NADH-Ubichinon-1-Reduktase (Rattus norvegicus, UniProt A6K8N6+P03889+Q641Y2)", "sequence (P03889 whole entry)": "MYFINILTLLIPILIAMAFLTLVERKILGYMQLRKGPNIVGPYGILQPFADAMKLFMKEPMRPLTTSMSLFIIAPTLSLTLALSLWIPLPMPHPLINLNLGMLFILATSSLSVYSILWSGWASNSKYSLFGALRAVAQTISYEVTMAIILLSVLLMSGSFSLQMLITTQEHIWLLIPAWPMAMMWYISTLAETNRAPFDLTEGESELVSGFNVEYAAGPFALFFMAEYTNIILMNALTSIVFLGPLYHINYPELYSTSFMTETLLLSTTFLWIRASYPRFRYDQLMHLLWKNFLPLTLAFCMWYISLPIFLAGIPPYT", "sequence (Q641Y2 34-463)": "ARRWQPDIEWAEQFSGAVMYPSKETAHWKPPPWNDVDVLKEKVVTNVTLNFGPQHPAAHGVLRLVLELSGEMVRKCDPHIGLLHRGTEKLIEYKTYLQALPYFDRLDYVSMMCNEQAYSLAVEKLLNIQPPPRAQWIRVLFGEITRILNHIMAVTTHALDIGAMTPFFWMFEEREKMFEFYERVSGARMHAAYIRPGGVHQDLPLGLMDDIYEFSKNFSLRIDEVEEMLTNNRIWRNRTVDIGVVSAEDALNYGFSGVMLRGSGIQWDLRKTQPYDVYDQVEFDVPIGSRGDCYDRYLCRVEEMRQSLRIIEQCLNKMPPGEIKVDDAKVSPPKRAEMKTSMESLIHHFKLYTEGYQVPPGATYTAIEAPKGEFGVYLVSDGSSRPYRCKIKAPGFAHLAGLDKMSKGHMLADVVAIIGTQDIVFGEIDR", "sequence (A6K8N6 entry or part of it)": "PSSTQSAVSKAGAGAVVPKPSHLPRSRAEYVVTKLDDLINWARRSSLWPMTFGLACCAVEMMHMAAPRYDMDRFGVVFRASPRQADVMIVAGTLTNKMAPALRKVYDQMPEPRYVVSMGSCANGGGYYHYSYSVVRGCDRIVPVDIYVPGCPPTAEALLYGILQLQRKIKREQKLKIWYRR", "assay": "NADH-ubiquinone-1 reductase (complex I) test, spectrophotometric at 340 nm"}, "[2]": {"biological_target": "T1, Succinat-Dehydrogenase (Rattus norvegicus, UniProt P21913+Q641Z9+Q6PCT8+Q920L2)", "T1 construct": "Hemmung des Komplexes I bzw; II der mitochondrialen Atmungskette in Rattenhirn-Homogenaten; from tissue; host or cells: rat brain homogenate", "T1 sequence (Q920L2 35-656)": "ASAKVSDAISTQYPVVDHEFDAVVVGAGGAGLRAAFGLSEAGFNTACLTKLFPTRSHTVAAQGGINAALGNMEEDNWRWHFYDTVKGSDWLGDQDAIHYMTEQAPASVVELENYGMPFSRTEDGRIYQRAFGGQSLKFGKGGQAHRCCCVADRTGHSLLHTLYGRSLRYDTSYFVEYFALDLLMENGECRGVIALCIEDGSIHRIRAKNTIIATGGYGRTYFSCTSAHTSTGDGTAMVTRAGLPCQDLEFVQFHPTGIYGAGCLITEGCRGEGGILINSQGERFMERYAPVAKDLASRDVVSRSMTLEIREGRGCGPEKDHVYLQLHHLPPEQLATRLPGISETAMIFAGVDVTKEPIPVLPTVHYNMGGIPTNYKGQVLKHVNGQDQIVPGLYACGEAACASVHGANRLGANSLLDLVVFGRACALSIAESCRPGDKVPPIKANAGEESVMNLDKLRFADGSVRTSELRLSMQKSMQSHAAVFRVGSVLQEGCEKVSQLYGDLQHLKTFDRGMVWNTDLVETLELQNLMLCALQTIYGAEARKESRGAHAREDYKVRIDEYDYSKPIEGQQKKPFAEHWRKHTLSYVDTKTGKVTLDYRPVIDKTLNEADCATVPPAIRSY", "T1 sequence (P21913 31-282)": "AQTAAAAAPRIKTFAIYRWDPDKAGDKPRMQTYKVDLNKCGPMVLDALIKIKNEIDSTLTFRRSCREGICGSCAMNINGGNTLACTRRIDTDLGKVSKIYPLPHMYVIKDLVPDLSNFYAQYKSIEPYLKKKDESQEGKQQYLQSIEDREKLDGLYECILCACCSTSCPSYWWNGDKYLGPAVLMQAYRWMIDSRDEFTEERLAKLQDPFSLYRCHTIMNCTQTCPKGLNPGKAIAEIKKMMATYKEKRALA", "T1 sequence (Q641Z9 1-169)": "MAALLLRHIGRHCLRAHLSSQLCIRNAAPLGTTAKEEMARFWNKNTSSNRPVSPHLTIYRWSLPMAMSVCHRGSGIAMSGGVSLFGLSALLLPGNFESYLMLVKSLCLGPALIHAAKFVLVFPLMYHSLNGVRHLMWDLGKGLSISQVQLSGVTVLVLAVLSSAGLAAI", "T1 sequence (Q6PCT8 57-159)": "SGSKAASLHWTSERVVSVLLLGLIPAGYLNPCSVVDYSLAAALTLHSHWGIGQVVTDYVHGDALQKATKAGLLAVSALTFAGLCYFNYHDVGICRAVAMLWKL", "assay": "Succinate dehydrogenase (complex II) activity", "conditions": "Rattenhirn-Homogenate"}, "[3]": {"biological_target": "NADH-Oxidase (Rattus norvegicus, UniProt A6K8N6+P03889+Q641Y2)", "assay": "NADH oxidase activity of complex I of the mitochondrial respiratory chain"}, "[4]": {"biological_target": "NADH-Cytochrom-c-Reduktase (Rattus norvegicus, UniProt A6K8N6+P03889+Q641Y2)", "sequence (Q641Y2 34-463)": "as the sequence (Q641Y2 34-463) above", "sequence (P03889 whole entry)": "as the sequence (P03889 whole entry) above", "sequence (A6K8N6 entry or part of it)": "as the sequence (A6K8N6 entry or part of it) above", "assay": "NADH-cytochrome-c reductase test (complex I/III), spectrophotometric at 550 nm", "protocol": "(§1) Die Isolierung von SMP's aus Rattenleber erfolgte nach (Ragan et al., 1987; Rickwood et al., 1987). • 8.1 Hemmung des Komplexes I der Atmungskette in SMP's durch N-Me-TaClo Komplex I (NADH-Dehydrogenase) der mitochondrialen Atmungskette katalysiert im ersten Schritt eine NADH-Oxidation. Die dabei freiwerdenden Elektronen werden in einem zweiten Schritt auf Coenzym Q bzw. Ubichinon übertragen. Ein typischer Testansatz (modifiziert nach Ragan et al., 1987) enthält dabei 20 mM K-Phosphat Puffer, pH 8.0, 0.2 mM NADH, 1 mM KCN, SMP (ca. 0.3 mg Protein/ml) und +/- 250 µM N-Me-TaClo (25 mM methanolische Stammlösung). Der Start der Reaktion erfolgt durch Zugabe von 50 µM Ubichinon-1. Die Messung der Reaktion erfolgt spektralphotometrisch bei einer Wellenlänge von 340 nm während der linearen Phase. Bei Zugabe von N-Me-TaClo erfolgt eine 100proz. Hemmung der Ubichinon-Reduktion (s.a. Tabelle 1). • 8.2 Hemmung der elektronenübertragenden Reaktionen auf Coenzym Q: NADH-Cytochrom-c-Reduktase und Succinat-Cytochrom-c-Reduktase Coenzym Q wird sowohl durch freiwerdende Elektronen bei der Komplex-I-katalysierten NADH-Oxidation, als auch bei der Komplex-II (Succinat-Coenzym-Q-Reduktase) -katalysierten Reaktion reduziert. Messungen dieser Reaktionswege mit anschließendem Elektronenfluß über den Komplex III bis zur Cytochrom-c-Reduktion lassen sich mittels folgender Tests untersuchen und durch die hier vorgestellten halogenierten β-Carbolinderivate (im folgenden am Beispiel von N-Me-TaClo) hemmen: • NADH-Cytochrom-c-Reduktase-Test (modifiziert nach Sottocasa et al., 1967) Ein typischer Testansatz enthält 25 mM K-Phosphat-Puffer, pH 7.5, 0.2 mM NADH, 0.1 mM Cytochrom-c, 0.5 mM KCN und +/- 250 µM N-Me-TaClo (25 mM methanolische Stammlösung). Die Messung der Reaktion erfolgt spektralphotometrisch bei einer Wellenlänge von 550 nm während der linearen Phase. Bei Zugabe von N-Me-Taclo erfolgt eine 100proz. Hemmung der Reaktion (s.a. Tabelle 1). • - Succinat-Cytochrom-c-Reduktase-Test (modifiziert nach Sottocasa et al., 1967) Ein typischer Testansatz enthält 55 mM K-Phosphat-Puffer, pH 7.5, 3 mM Na-Succinat, 0.1 mM Cytochrom c, +/- 250 µM N-Me-TaClo (25 mM methanolische Stammlösung) und 0.5 mM KCN. Gestartet wird die Reaktion mit SMP (ca. 0.3 mg Protein/ml). Die Messung der Reaktion erfolgt spektralphotometrisch bei einer Wellenlänge von 550 nm während der linearen Phase. Bei Zugabe von N-Me-TaClo erfolgt eine 100proz. Hemmung der Reaktion (s. auch Tabelle 1). • - Einsatz der halogenierten β-Carboline als Hemmstoffe der NADH- bzw. Succinat-gekoppelten Oxidation; Polarographische Messungen der Enzymaktivitäten an SMP's (\"submitochondrial particles\") Bei der polarographischen Messung wird die Aktivität der Atmungskette in ihrer Gesamtheit ausgehend von der NADH-Oxidation (Komplex I) bzw. Succinat-Oxidation (Komplex II) bis zur O2-Reduktion (Komplex IV) bestimmt. Als Maß der Aktivität wird der O2-Verbrauch bestimmt. Der Test wird unter Verwendung einer Clark-Sauerstoffelektrode (Rank Brothers, England) bei 30°C in 2 ml Puffer (50 mM K-Phosphat, pH 7.4, 250 mM Saccharose) und 0.15 mg SMP-Protein/ml durchgeführt. Nach 5 minütiger Vorinkubation ± Inhibitor wird die Messung mit NADH (Endkonzentration 0.28 mM) bzw. Succinat (Endkonzentration 20 mM) gestartet. Bei der Succinat-gekoppelten Oxidation werden die SMP's vorher nach Krueger et al., (1993) mit Malonat aktiviert."}, "[5]": {"tested_on": "Succinat-Cytochrom-c-Reduktase", "assay": "Succinate-cytochrome-c reductase test (complex II/III), spectrophotometric at 550 nm", "protocol": "as §1, with “Succinat-Oxidation (Komplex II) bis zur O2-Reduktion (Komplex IV) bestimmt. Als Maß der Aktivität wird der O2-Verbrauch bestimmt. Der Test wird unter Verwendung einer Clark-Sauerstoffelektrode (Rank Brothers, England) bei 30°C in 2 ml Puffer (50 mM K-Phosphat, pH 7.4, 250 mM Saccharose) und 0.15 mg SMP-Protein/ml durchgeführt. Nach 5 minütiger Vorinkubation ± Inhibitor wird die Messung mit NADH (Endkonzentration 0.28 mM) bzw. Succinat (Endkonzentration 20 mM) gestartet. Bei der Succinat-gekoppelten Oxidation werden die SMP's vorher nach Krueger et al., (1993) mit Malonat aktiviert.” left out"}, "[6]": {"biological_target": "Cytochrom c Oxidase (Rattus norvegicus, UniProt P00406+P05503)", "assay": "Cytochrome c oxidase (complex IV) activity", "conditions": "500 µM TaClo, Rattenhirn-Homogenate"}, "[7]": {"conditions": "bei 500 µmol, Rattenhirn-Homogenate, read-out: Komplex-I-Hemmung Inhibierungsrate (in %) bei gegebener Konzentration (in µmol)"}, "[8]": {"conditions": "bei 500 µmol, read-out: Komplex-II-Hemmung Inhibierungsrate (in %) bei gegebener Konzentration (in µmol)"}, "[9]": {"conditions": "bei 250 µmol, read-out: Komplex-II-Hemmung Inhibierungsrate (in %) bei gegebener Konzentration (in µmol)"}, "[10]": {"conditions": "read-out: Inhibierungsrate durch TaClo"}}, "note": "Where two headings read alike, the source gives them in different places.", "data": [{"molecule": "CC(=O)N1CCc2c([nH]c3ccccc23)C1C(Cl)(Cl)Cl", "note": "(racemic) [N-Acetyl-TaClo]", "values": [{"measurement": "inhibition at 500 µM", "setting": "[1]; [7]", "result": 20, "unit": "%"}]}, {"molecule": "C=CCN1CCc2c([nH]c3ccccc23)C1C(Cl)(Cl)Cl", "note": "(racemic) [N-Allyl-TaClo]", "values": [{"measurement": "inhibition at 500 µM", "setting": "[2]; [8]", "result": "≥ 100", "unit": "%"}]}, {"molecule": "ClC(Cl)(Cl)C1c2[nH]c3ccccc3c2CCN1Cc1ccccc1", "note": "(racemic) [N-Bzl-TaClo]", "values": [{"measurement": "inhibition at 250 µM", "setting": "[2]; [9]", "result": 55, "unit": "%"}]}, {"molecule": "CCN1CCc2c([nH]c3ccccc23)C1C(Cl)(Cl)Cl", "note": "(racemic) [N-Ethyl-TaClo]", "values": [{"measurement": "inhibition at 500 µM", "setting": "[2]; [8]", "result": 75, "unit": "%"}]}, {"molecule": "O=CN1CCc2c([nH]c3ccccc23)C1C(Br)(Br)Br", "note": "(racemic) [N-Formyl-TaBro]", "values": [{"measurement": "inhibition at 500 µM", "setting": "[1]; [7]", "result": 83, "unit": "%"}]}, {"molecule": "CN1CCc2c([nH]c3ccccc23)C1C(Cl)(Cl)Cl", "note": "(racemic) [N-Me-TaClo]", "values": [{"measurement": "inhibition at 250 µM", "setting": "[2]; Succinat-Dehydrogenase, 250 µM, read-out: Inhibierung bei 250 µM N-Me-TaClo", "result": 100, "unit": "%"}, {"measurement": "inhibition at 250 µM", "setting": "[2]; [9]", "result": "≥ 100", "unit": "%"}, {"measurement": "inhibition at 250 µM", "setting": "[1]; 250 µM N-Me-TaClo, SMP's aus Rattenleber, read-out: Hemmung der Ubichinon-Reduktion", "result": 100, "unit": "%"}, {"measurement": "inhibition at 250 µM", "setting": "[1]; NADH-Ubichinon-1-Reduktase, 250 µM, Rattenhirn-Homogenate, read-out: Inhibierung bei 250 µM N-Me-TaClo", "result": 100, "unit": "%"}, {"measurement": "inhibition at 250 µM", "setting": "[3]; NADH-Oxidase, 250 µM, Rattenhirn-Homogenate, read-out: Inhibierung bei 250 µM N-Me-TaClo", "result": 0, "unit": "%"}, {"measurement": "inhibition at 250 µM", "setting": "[4]; 250 µM N-Me-TaClo, SMP's aus Rattenleber, read-out: Hemmung der Reaktion (NADH-Cytochrom-c-Reduktase-Test)", "result": 100, "unit": "%"}, {"measurement": "inhibition at 250 µM", "setting": "[4]; NADH-Cytochrom-c-Reduktase, 250 µM, Rattenhirn-Homogenate, read-out: Inhibierung bei 250 µM N-Me-TaClo", "result": 70, "unit": "%"}, {"measurement": "Hemmung der Reaktion (Succinat-Cytochrom-c-Reduktase-Test)", "setting": "[5]; 250 µM N-Me-TaClo, SMP's aus Rattenleber", "result": 100, "unit": "proz."}, {"measurement": "Inhibierung bei 250 µM N-Me-TaClo", "setting": "[5]; Succinat-Cytochrom-c-Reduktase, 250 µM, Rattenhirn-Homogenate", "result": 80, "unit": "%"}]}, {"molecule": "O=C(CCl)N1CCc2c([nH]c3ccccc23)C1C(Cl)(Cl)Cl", "note": "(racemic) [N-Monochloracetyl-TaClo]", "values": [{"measurement": "inhibition at 500 µM", "setting": "[1]; [7]", "result": 95, "unit": "%"}]}, {"molecule": "O=C(N1CCc2c([nH]c3ccccc23)C1C(Cl)(Cl)Cl)C(Cl)(Cl)Cl", "note": "(racemic) [N-Trichloracetyl-TaClo]", "values": [{"measurement": "inhibition at 500 µM", "setting": "[1]; [7]", "result": 90, "unit": "%"}]}, {"molecule": "ClC(Cl)(Cl)C1NCCc2c1[nH]c1ccccc21", "note": "(racemic) [TaClo, 1-Trichlormethyl-1,2,3,4-tetrahydro-β-carbolin]", "values": [{"measurement": "Enzymaktivität (nmol/min/mg Protein)", "setting": "[2]; Succinat Dehydrogenase, 500 µM TaClo, Kontrolle 29.6", "result": 30.1, "unit": "nmol/min/mg Protein"}, {"measurement": "inhibition at 500 µM", "setting": "[2]; Succinat Dehydrogenase, 500 µM TaClo, read-out: Inhibierungsrate durch TaClo", "result": 0, "unit": "%"}, {"measurement": "inhibition at 500 µM", "setting": "[2]; [8]", "result": 30, "unit": "%"}, {"measurement": "Enzymaktivität (nmol/min/mg Protein)", "setting": "[1]; NADH CoQ1 Reduktase, 500 µM TaClo, Rattenhirn-Homogenate, Kontrolle 10.9", "result": 1.6, "unit": "nmol/min/mg Protein"}, {"measurement": "inhibition at 500 µM", "setting": "[1]; [10]", "result": 85, "unit": "%"}, {"measurement": "Enzymaktivität (nmol/min/mg Protein)", "setting": "[3]; NADH-Oxidase, 500 µM TaClo, Rattenhirn-Homogenate, Kontrolle 141.0", "result": 138.0, "unit": "nmol/min/mg Protein"}, {"measurement": "inhibition at 500 µM", "setting": "[3]; [10]", "result": 0, "unit": "%"}, {"measurement": "Einfluß auf die NADH-Oxidation", "setting": "[3]; result in words, s. Tabelle 2", "result": "beeinflußt jedoch nicht die NADH-Oxidation"}, {"measurement": "Enzymaktivität (nmol/min/mg Protein)", "setting": "[6]; Kontrolle 45.8", "result": 38.9, "unit": "nmol/min/mg Protein"}, {"measurement": "inhibition at 500 µM", "setting": "[6]; [10]", "result": 20, "unit": "%"}, {"measurement": "Enzymaktivität (nmol/min/mg Protein)", "setting": "[4]; NADH Cyt c Reduktase, 500 µM TaClo, Rattenhirn-Homogenate, Kontrolle 24.6", "result": 14.7, "unit": "nmol/min/mg Protein"}, {"measurement": "inhibition at 500 µM", "setting": "[4]; [10]", "result": 40, "unit": "%"}, {"measurement": "Inhibierungsrate durch TaClo", "setting": "[5]; Succinat Cyt c Reduktase, 500 µM TaClo, Rattenhirn-Homogenate", "result": 22, "unit": "%"}, {"measurement": "Enzymaktivität (nmol/min/mg Protein)", "setting": "[5]; Succinat Cyt c Reduktase, 500 µM TaClo, Rattenhirn-Homogenate, Kontrolle 11.9", "result": 9.2, "unit": "nmol/min/mg Protein"}]}, {"molecule": "COC(=O)[C@@H]1Cc2c([nH]c3ccccc23)C(C(Cl)(Cl)Cl)N1", "note": "(stereo partly shown) [3-COOMe-TaClo]", "values": [{"measurement": "inhibition at 500 µM", "setting": "[2]; [8]", "result": 75, "unit": "%"}]}, {"molecule": "FC(F)(F)C1=NCCc2c1[nH]c1ccccc21", "note": "[DDH-TaFlu, 1-Trifluormethyl-3,4-didehydro-β-carbolin]", "values": [{"measurement": "inhibition at 250 µM", "setting": "[2]; [9]", "result": 20, "unit": "%"}]}, {"molecule": "ClC(Cl)=C1NCCc2c1[nH]c1ccccc21", "note": "[Dichlormethylen-TaClo]", "values": [{"measurement": "inhibition at 250 µM", "setting": "[2]; [9]", "result": 40, "unit": "%"}]}, {"molecule": "COC(=O)C1Cc2c([nH]c3ccccc23)C(C(Cl)(Cl)Cl)N1Cc1ccccc1", "note": "(stereo not shown) [N-Bzl-3-COOMe-TaClo]", "values": [{"measurement": "inhibition at 500 µM", "setting": "[2]; [8]", "result": 60, "unit": "%"}]}, {"molecule": "O=CN1CCc2c([nH]c3ccccc23)C1=C(Br)Br", "note": "[N-Formyl-dibrommethylen-TaBro]", "values": [{"measurement": "inhibition at 500 µM", "setting": "[1]; [7]", "result": "≥ 100", "unit": "%"}]}, {"molecule": "C=C(C)[C@H]1Cc2c(ccc3c2O[C@@H]2COc4cc(OC)c(OC)cc4[C@@H]2C3=O)O1", "note": "[Rotenon, reference compound]", "values": [{"measurement": "Enzymaktivität (nmol/min/mg Protein)", "setting": "[1]", "result": 4.2, "unit": "nmol/min/mg Protein"}, {"measurement": "Enzymaktivität (nmol/min/mg Protein)", "setting": "[4]", "result": 5.7, "unit": "nmol/min/mg Protein"}]}]}
